From US20090203697A1, “HETEROCYCLIC TYPE CINNAMIDE DERIVATIVE” (priority 2006, published 2009)

Tested on: Aβ42 production
Assay: Quantification of Aβ peptide in neuronal culture from rat fetus brain (Aβ ELISA)
Assay type: cell-based
Conditions: 72 h; rat primary neuronal culture (cerebral cortex, embryonic day 18 Wistar rats); medium collected three days after addition of the compound; Aβx-42 ELISA; read-out: Aβ42 production reducing effect IC50
Description: Quantification of Aβ Peptide in Neuronal Culture from Rat Fetus Brain
(1) Rat Primary Neuronal Culture
Primary neuronal cultures were prepared from the cerebral cortex of embryonic day 18 Wistar rats (Charles River Japan, Yokohama, Japan). Specifically, the embryos were aseptically removed from pregnant rats under ether anesthesia. The brain was isolated from the embryo and immersed in an ice-cold L-15 medium (such as Invitrogen Corp. Cat #11415-064, Carlsbad, Calif., USA, or SIGMA L1518). The cerebral cortex was collected from the isolated brain under a stereoscopic microscope. The cerebral cortex fragments collected were enzymatically treated in an enzyme solution containing 0.25% trypsin (Invitrogen Corp. Cat #15050-065, Carlsbad, Calif., USA) and 0.01% DNase (Sigma D5025, St. Louis, Mo., USA) at 37° C. for 30 minutes to disperse the cells. Here, the enzymatic reaction was stopped by adding inactivated horse serum to the solution. The enzymatically treated solution was centrifuged at 1,500 rpm for five minutes to remove the supernatant. 5 to 10 ml of a medium was added to the resulting cell mass. Neurobasal medium (Invitrogen Corp. Cat #21103-049, Carlsbad, Calif., USA) supplemented with 2% B27 supplement (Invitrogen Corp. Cat #17504-044, Carlsbad, Calif., USA), 25 μM 2-mercaptoethanol (2-ME, WAKO Cat #139-06861, Osaka, Japan), 0.5 mM L-glutamine (Invitrogen Corp. Cat #25030-0817 Carlsbad, Calif., USA), and Antibiotics-Antimycotics (Invitrogen Corp. Cat #15240-062, Carlsbad, Calif., USA) was used as the medium (Neurobasal/B27/2-ME). However, the above Neurobasal medium not supplemented with 2-ME (Neurobasal/B27) was used for the assay. The cells were redispersed by mild pipetting of the cell mass to which the medium was added. The cell dispersion was filtered through a 40-μm nylon mesh (Cell Strainer, Cat #35-2340, Becton Dickinson Labware, Franklin Lakes, N.J., USA) to remove the remaining cell mass, and thus a neuronal cell suspension was obtained. The neuronal cell suspension was diluted with the medium and then plated in a volume of 100 μl/well at an initial cell density of 5×10^5 cells/cm^2 in a 96-well polystyrene culture plate pre-coated with poly-L or D-lysine (Falcon Cat #35-3075, Becton Dickinson Labware, Franklin Lakes, N.J., USA coated with poly-L-lysine using the method shown below, or BIOCOAT™ cell environments Poly-D-lysine cell ware 96-well plate, Cat #35-6461, Becton Dickinson Labware, Franklin Lakes, N.J., USA). Poly-L-lysine coating was carried out as follows. 100 μg/ml of a poly-L-lysine (SIGMA P2636, St. Louis, Mo., USA) solution was aseptically prepared with a 0.15 M borate buffer. (pH 8.5). […] of the solution was added to the 96-well polystyrene culture plate and incubated at room temperature for one or more hours or at 4° C. overnight or longer. The coated 96-well polystyrene culture plate was washed with sterile water four or more times, and then dried or rinsed with, for example, sterile PBS or medium, and used for cell plating. The plated cells were cultured in the culture plate at 37° C. in 5% CO2-95% air for one day. Then, the total amount of the medium was replaced with a fresh Neurobasal™/B27/2-ME medium, and then the cells were cultured for further three days.
The drug was added to the culture plate on Day 4 of culture as follows. The total amount of the medium was removed from the wells, and 180 μl/well of Neurobasal medium not containing 2-ME and containing 2% B-27 (Neurobasal/B27) was added thereto. A solution of the test compound in dimethyl sulfoxide (hereinafter abbreviated as DMSO) was diluted with Neurobasal/B27 to a concentration 10-fold higher than the final concentration. 20 μl/well of the dilution was added to and sufficiently mixed with the medium. The final DMSO concentration was 1% or less. Only DMSO was added to the control group.
The cells were cultured for three days after addition of the compound, and the total amount of the medium was collected. […]

SMILES	IC50 [nM]
COc1cc(/C=C2\OC(C)(C)CN([C@H](c3ccc(F)cc3)[C@@H](C)O)C2=O)ccc1-n1cnc(C)n1 [Example 23, (Z)-4-[(1R,2R)-1-(4-fluorophenyl)-2-hydroxypropyl]-2-[1-[3-methoxy-4-(3-methyl[1,2,4]triazol-1-yl)phenyl]methylidene]-6,6-dimethylmorpholin-3-one]	400
COc1cc(/C=C2\O[C@@H](C)CN([C@H](c3ccc(F)cc3)[C@@H](C)O)C2=O)ccc1-n1cnc(C)n1 [Example 24, (6S)-(Z)-4-[(1R,2R)-1-(4-fluorophenyl)-2-hydroxypropyl]-2-[1-[3-methoxy-4-(3-methyl[1,2,4]triazol-1-yl)phenyl]methylidene]-6-methylmorpholin-3-one]	290
COc1cc(/C=C2\CCCN([C@H](c3ccc(F)cc3)[C@@H](C)O)C2=O)ccc1-n1cnc(C)n1 [Example 22, (E)-1-[(1R,2R)-1-(4-fluorophenyl)-2-hydroxypropyl]-3-{1-[3-methoxy-4-(3-methyl[1,2,4]triazol-1-yl)phenyl]methylidene}piperidin-2-one]	50
COc1cc(/C=C2\CCCN([C@H](c3cc(F)c(F)c(F)c3)[C@@H](C)O)C2=O)ccc1-n1cnc(C)n1 [Example 21, (E)-1-[(1R,2R)-2-hydroxy-1-(3,4,5-trifluorophenyl)propyl]-3-[1-[3-methoxy-4-(3-methyl[1,2,4]triazol-1-yl)phenyl]methylidene]piperidin-2-one]	60
COc1cc(/C=C2\CC(C)(C)CN([C@@H](C)c3ccc(F)cc3)C2=O)ccc1-n1cnc(C)n1 [Example 27, (E)-1-[(S)-1-(4-fluorophenyl)ethyl]-3-[1-[3-methoxy-4-(3-methyl[1,2,4]triazol-1-yl)phenyl]methylidene]-5,5-dimethylpiperidin-2-one]	270
COc1cc(/C=C2\CC[C@H]3CCC[C@@H](c4ccc(F)cc4)N3C2=O)ccc1-n1cnc(C)n1 [Example 28, (E)-(6S,9aR)-6-(4-fluorophenyl)-3-{1-[3-methoxy-4-(3-methyl[1,2,4]triazol-1-yl)phenyl]methylidene}octahydroquinolizin-4-one]	440
COc1cc(/C=C2\CC[C@H]3CC[C@@H](c4ccc(F)c(F)c4)N3C2=O)ccc1-n1cnc(C)n1 [Example 26, (E)-(3S,8aS)-3-(3,4-difluorophenyl)-6-[3-methoxy-4-(3-methyl[1,2,4]triazol-1-yl)benzylidene]hexahydroindolizin-5-one]	380
COc1cc(/C=C2\OCCN([C@H](c3cc(F)c(F)c(F)c3)[C@@H](C)O)C2=O)ccc1-n1cnc(C)n1 [Example 20, (Z)-4-[(1R,2R)-2-hydroxy-1-(3,4,5-trifluorophenyl)propyl]-2-[1-[3-methoxy-4-(3-methyl[1,2,4]triazol-1-yl)phenyl]methylidene]morpholin-3-one]	210
COc1cc(/C=C2\O[C@@H](C)CN([C@H](c3cc(F)c(F)c(F)c3)[C@@H](C)O)C2=O)ccc1-n1cnc(C)n1 [Example 18, (Z)-(6S)-4-[(1R,2R)-2-hydroxy-1-(3,4,5-trifluorophenyl)propyl]-2-[1-[3-methoxy-4-(3-methyl[1,2,4]triazol-1-yl)phenyl]methylidene]-6-methylmorpholin-3-one]	160
COc1cc(/C=C2\OC(C)(C)CN([C@H](c3cc(F)c(F)c(F)c3)[C@@H](C)O)C2=O)ccc1-n1cnc(C)n1 [Example 19, (Z)-4-[(1R,2R)-2-hydroxy-1-(3,4,5-trifluorophenyl)propyl]-2-[1-[3-methoxy-4-(3-methyl[1,2,4]triazol-1-yl)phenyl]methylidene]-6,6-dimethylmorpholin-3-one]	150
COc1cc(/C=C2\CCCN([C@@H](C)c3cc(F)c(F)c(F)c3)C2=O)ccc1-n1cnc(C)n1 [Example 6, (E)-3-[1-[3-methoxy-4-(3-methyl[1,2,4]triazol-1-yl)phenyl]methylidene]-1-[(S)-1-(3,4,5-trifluorophenyl)ethyl]piperidin-2-one]	320
COc1cc(/C=C2\O[C@@H](C)CN(C(C)(C)c3ccc(F)cc3)C2=O)ccc1-n1cnc(C)n1 [Example 17, (Z)-(6S)-4-[1-(4-fluorophenyl)-1-methylethyl]-2-[1-[3-methoxy-4-(3-methyl[1,2,4]triazol-1-yl)phenyl]methylidene]-6-methylmorpholin-3-one]	180
